Measured values published in patent publication US6992215B2, “Thiol-based NAALADase inhibitors” (Guildford Pharmaceuticals Inc., priority 2001, dated 2006).

tested on: cortical cell cultures; test: In Vitro Assay on Ischemia (glutamate toxicity after potassium cyanide / 2-deoxyglucose insult); type: cell-based; details: concentration required to cause a 50% reduction in glutamate toxicity following an ischemic insult
Experimental: To examine the in vitro effect of the inventive compounds on ischemia, cortical cell cultures were treated with various compounds of this invention during an ischemic insult utilizing potassium cyanide and 2-deoxyglucose, and for one hour thereafter. For a description of the experimental method used, see Vornov et al., J. Neurochem., Vol. 65, No. 4, pp. […] (1995).

SMILES	EC50 [nM]
COc1cc(OC)cc(OC(CCCS)C(=O)O)c1 (stereo not drawn) [Compound 16, 2-(3,5-dimethoxyphenoxy)-5-mercapto-pentanoic acid]	267
CC(=O)Nc1ccc(CC(CCCS)C(=O)O)cc1 (stereo not drawn) [Compound 26, 4-(acetylamino)-alpha-(3-mercaptopropyl)-benzenepropanoic acid]	1800
O=C(O)c1ccc(CC(CCCS)C(=O)O)cc1 (stereo not drawn) [Compound 6, 4-carboxy-alpha-(3-mercaptopropyl)-benzenepropanoic acid]	17.8
O=C(O)c1cc(CC(CCCS)C(=O)O)cc(-c2ccccc2)c1 (stereo not drawn) [Compound 55, 5-(2-carboxy-5-mercaptopentyl)-[1,1′-biphenyl]-3-carboxylic acid]	1
O=C(O)c1c(F)c(F)c(CC(CCCS)C(=O)O)c(F)c1F (stereo not drawn) [Compound 39, 4-carboxy-2,3,5,6-tetrafluoro-alpha-(3-mercaptopropyl)-benzenepropanoic acid]	290
O=C(O)c1cc(CC(CCCS)C(=O)O)ccc1F (stereo not drawn) [Compound 11, 3-carboxy-4-fluoro-alpha-(3-mercaptopropyl)-benzenepropanoic acid]	15.4
O=C(O)c1ccc(F)c(CC(CCCS)C(=O)O)c1 (stereo not drawn) [Compound 35, 5-carboxy-2-fluoro-alpha-(3-mercaptopropyl)-benzenepropanoic acid]	23
O=C(O)c1ccc(OC(CCCS)C(=O)O)cc1 (stereo not drawn) [Compound 30, 4-(1-carboxy-4-mercaptobutoxy)-benzoic acid]	399
CC(=O)c1cccc(OC(CCCS)C(=O)O)c1 (stereo not drawn) [Compound 23, 2-(3-acetylphenoxy)-5-mercapto-pentanoic acid]	21
O=C(O)Cc1ccc(CC(CCCS)C(=O)O)cc1 (stereo not drawn) [Compound 28, 4-(carboxymethyl)-alpha-(3-mercaptopropyl)-benzenepropanoic acid]	48
O=C(O)c1cc(CC(CCCS)C(=O)O)ccc1Cl (stereo not drawn) [Compound 32, 3-carboxy-4-chloro-alpha-(3-mercaptopropyl)-benzenepropanoic acid]	7
COc1ccc(C(=O)O)cc1OC(CCCS)C(=O)O (stereo not drawn) [Compound 27, 3-(1-carboxy-4-mercaptobutoxy)-4-methoxy-benzoic acid]	155
O=C(O)c1ccc(CC(CCCS)C(=O)O)cc1Br (stereo not drawn) [Compound 47, 3-bromo-4-carboxy-alpha-(3-mercaptopropyl)-benzenepropanoic acid]	119
O=C(O)c1cc(Br)cc(CC(CCCS)C(=O)O)c1 (stereo not drawn) [Compound 45, 3-bromo-5-carboxy-alpha-(3-mercaptopropyl)-benzenepropanoic acid]	2
O=C(O)C(CCCS)Sc1ccccc1 (stereo not drawn) [Compound 40, 5-mercapto-2-(phenylthio)-pentanoic acid]	452
O=C(O)Cc1cccc(OC(CCCS)C(=O)O)c1 (stereo not drawn) [Compound 20, 3-(1-carboxy-4-mercaptobutoxy)-benzeneacetic acid]	39.3
O=C(O)c1cccc(CC(CCCS)C(=O)O)c1-c1ccccc1 (stereo not drawn) [Compound 57, 6-(2-carboxy-5-mercaptopentyl)-[1,1′-biphenyl]-2-carboxylic acid]	21
O=C(O)c1cc(CC(CCCS)C(=O)O)cc(C(=O)O)c1 (stereo not drawn) [Compound 9, 5-(2-carboxy-5-mercaptopentyl)-1,3-benzenedicarboxylic acid]	104
COc1ccc(C(=O)O)cc1CC(CCCS)C(=O)O (stereo not drawn) [Compound 36, 5-carboxy-alpha-(3-mercaptopropyl)-2-methoxy-benzenepropanoic acid]	74.9

SMILES	EC50 [nM]
O=C(O)c1cccc(CC(CCCS)C(=O)O)c1Cl (stereo not drawn) [Compound 31, 3-carboxy-2-chloro-alpha-(3-mercaptopropyl)-benzenepropanoic acid]	31
O=C(O)C(CCCS)Cc1ccccc1Cl (stereo not drawn) [Compound 43, 2-chloro-alpha-(3-mercaptopropyl)-benzenepropanoic acid]	452
O=C(O)c1ccc(CC(CCCS)C(=O)O)c2ccccc12 (stereo not drawn) [Compound 37, 4-carboxy-alpha-(3-mercaptopropyl)-1-naphthalenepropanoic acid]	215
O=C(O)C(CCCS)Oc1ccccc1 (stereo not drawn) [Compound 15, 5-mercapto-2-phenoxy-pentanoic acid]	1000
O=C(O)Cc1ccc(OC(CCCS)C(=O)O)cc1 (stereo not drawn) [Compound 21, 4-(1-carboxy-4-mercaptobutoxy)-benzeneacetic acid]	11.6
O=C(O)CNC(=O)c1cccc(CC(CCCS)C(=O)O)c1 (stereo not drawn) [Compound 46, 3-[[(carboxymethyl)amino]carbonyl]-alpha-(3-mercaptopropyl)-benzenepropanoic acid]	544
O=C(O)c1cc(CC(CCCS)C(=O)O)ccc1-c1ccccc1 (stereo not drawn) [Compound 58, 4-(2-carboxy-5-mercaptopentyl)-[1,1′-biphenyl]-2-carboxylic acid]	16
O=C(O)c1ccc(Cl)c(OC(CCCS)C(=O)O)c1 (stereo not drawn) [Compound 33, 3-(1-carboxy-4-mercaptobutoxy)-4-chloro-benzoic acid]	110
O=C(O)c1ccccc1CC(CCCS)C(=O)O (stereo not drawn) [Compound 38, 2-carboxy-alpha-(3-mercaptopropyl)-benzenepropanoic acid]	762
N#Cc1ccccc1-c1ccc(CC(CCCS)C(=O)O)cc1 (stereo not drawn) [Compound 12, 4-(2-cyanophenyl)-alpha-(3-mercaptopropyl)-benzenepropanoic acid]	188
O=C(O)c1cc(CC(CCCS)C(=O)O)cc([N+](=O)[O-])c1 (stereo not drawn) [Compound 48, 3-carboxy-alpha-(3-mercaptopropyl)-5-nitro-benzenepropanoic acid]	2.4
CS(=O)(=O)c1ccc(CC(CCCS)C(=O)O)cc1 (stereo not drawn) [Compound 7, alpha-(3-mercaptopropyl)-4-(methylsulfonyl)-benzenepropanoic acid]	1060
O=C(O)c1cccc(OC(CCCS)C(=O)O)c1 (stereo not drawn) [Compound 14, 3-(1-carboxy-4-mercaptobutoxy)-benzoic acid]	16
O=C(O)c1ccc(-c2ccccc2)c(CC(CCCS)C(=O)O)c1 (stereo not drawn) [Compound 56]	11
O=C(O)c1ccc([N+](=O)[O-])c(CC(CCCS)C(=O)O)c1 (stereo not drawn) [Compound 50, 5-carboxy-alpha-(3-mercaptopropyl)-2-nitro-benzenepropanoic acid]	26
O=C(O)c1ccc(F)c(OC(CCCS)C(=O)O)c1 (stereo not drawn) [Compound 34, 3-(1-carboxy-4-mercaptobutoxy)-4-fluoro-benzoic acid]	346
NC(=O)c1ccccc1CC(CCCS)C(=O)O (stereo not drawn) [Compound 13, 2-(aminocarbonyl)-alpha-(3-mercaptopropyl)-benzenepropanoic acid]	10000
N#Cc1ccccc1CC(CCCS)C(=O)O (stereo not drawn) [Compound 8, 2-cyano-alpha-(3-mercaptopropyl)-benzenepropanoic acid]	133
O=C(O)c1ccc(Cl)c(CC(CCCS)C(=O)O)c1 (stereo not drawn) [Compound 10, 5-carboxy-2-chloro-alpha-(3-mercaptopropyl)-benzenepropanoic acid]	7.7

tested on: chronic constrictive injury-induced rats; test: Neuropathic pain in CCI model (sciatic nerve ligation, thermal hyperalgesia); type: in vivo; details: 10, 1 or 0.1 mg/kg for 15 days after sciatic nerve ligation, FIGS. 13-15
Experimental: Sciatic nerve ligation, consisting of 4 ligatures tied loosely around the sciatic nerve at 1 mm intervals proximal to the nerve trifurcation, was performed on rats. […] The rats were habituated to a Hargreaves apparatus. An infrared heat source was directed onto the dorsal surface of each rat's hindpaws and the time taken for the rat to withdraw its paws was noted. The difference in scores between the latency of the response for the paw on the operated side versus the paw on the unoperated control side was determined.
The rats were treated with either Compound 49 (10, 1 or 0.1 mg/kg) or a vehicle for 15 days after sciatic nerve ligation. Thermal pain responses were measured at days 0, 1, 5, 8, 11 and 15. The differences in scores for the rats treated with a vehicle and the rats treated with Compound 49 are graphically presented in FIGS. 13-15.
The rats were treated with either Compound 5 (50, 30, 10, 3, 1 or 0.3 mg/kg) or a vehicle for 12 (or 15) days after sciatic nerve ligation. Thermal pain responses were measured at days 0, 1, 5, 8 and 12 (and 15). The differences in scores for the rats treated with a vehicle and the rats treated with Compound 5 are graphically presented in FIGS. 17-22.
The rats received either Compound C (50 mg/kg i.p. daily) or a vehicle starting 10 days post surgery. […] Normal (unoperated) rats had approximately equal latencies for both paws. This effect was significant starting at 11 days of drug treatment and persisted through to the end of the study (for 21 days of daily dosing).

SMILES	difference in scores between the operated and unoperated paws
CC(C)(C)c1cc(CC(CCCS)C(=O)O)cc(C(=O)O)c1 (stereo not drawn) [Compound 49, 3-carboxy-5-(1,1-dimethylethyl)-alpha-(3-mercaptopropyl)-benzenepropanoic acid]	normalized the difference in scores
